The target in the experiment is T1, recombinant human SYK360-635 (Homo sapiens, UniProt P43405).
T1 construct: made in house
The experiment in a line: Determination of IC50 of Spleen Tyrosine Kinase (SYK) inhibition, 33P ATP filtration assay. The class given is biochemical. The conditions noted are these: SYK aa 360-635 0.5 nM; ATP 20 μM, peptide 5 μM, 0.1% BSA; read-out: SYK_ENZYME_FILTRATION/v1, BSA.

The structures appear in SMILES notation.

Regarding `COc1ccc2c(c1)c(-c1cnc3[nH]cc(C(=O)N[C@@H]4CCCC[C@@H]4N)c3n1)nn2C` [Example I-291, 2-(5-Methoxy-1-methyl-1H-indazol-3-yl)-5H-pyrrolo[2,3-b]pyrazine-7-carboxylic acid ((1R,2S)-2-amino-cyclohexyl)-amide], the IC50 is 1000 nM.

In the case of `Cc1ccc2c(-c3cnc4[nH]cc(C(=O)NC5(C#N)CC5)c4n3)n[nH]c2c1` [Example I-437, 2-(6-Methyl-1H-indazol-3-yl)-5H-pyrrolo[2,3-b]pyrazine-7-carboxylic acid (1-cyano-cyclopropyl)-amide], the IC50 was determined as 3.95 nM.

As for `Cn1nc(-c2cnc3[nH]cc(C(=O)NC4(C)CCNC4)c3n2)c2ccc(F)cc21` (centres unmarked) [Example I-406, 2-(6-Fluoro-1-methyl-1H-indazol-3-yl)-5H-pyrrolo[2,3-b]pyrazine-7-carboxylic acid (3-methyl-pyrrolidin-3-yl)-amide], the IC50 came out at 87.3 nM.

Consider `CC(C)NC(=O)c1c[nH]c2ncc(-c3nn(C)c4ccc(O)cc34)nc12` [Example I-65, 2-(5-Hydroxy-1-methyl-1H-indazol-3-yl)-5H-pyrrolo[2,3-b]pyrazine-7-carboxylic acid isopropylamide], for which the IC50 came to 5.8 nM.

Take `CC(C)(C)NC(=O)c1c[nH]c2ncc(-c3nn(CCCN4CCC(F)(F)C4)c4ccc(OC(F)F)cc34)nc12` [Example I-343, 2-{5-Difluoromethoxy-1-[3-(3,3-difluoro-pyrrolidin-1-yl)-propyl]-1H-indazol-3-yl}-5H-pyrrolo[2,3-b]pyrazine-7-carboxylic acid tert-butylamide]: the IC50 came to 37 nM.

For the compound `CC(C)(C)NC(=O)c1c[nH]c2ncc(-c3nn(CC4CCNC4)c4ccc(OC(F)F)cc34)nc12` (centres unmarked) [Example I-265, 2-(5-Difluoromethoxy-1-pyrrolidin-3-ylmethyl-1H-indazol-3-yl)-5H-pyrrolo[2,3-b]pyrazine-7-carboxylic acid tert-butylamide], the IC50 stood at 8.62 nM.

For the compound `CC(C)(C)NC(=O)c1c[nH]c2ncc(-c3nn(CC(=O)N4CCOCC4)c4cc(F)ccc34)nc12` [Example I-251, 2-[6-Fluoro-1-(2-morpholin-4-yl-2-oxo-ethyl)-1H-indazol-3-yl]-5H-pyrrolo[2,3-b]pyrazine-7-carboxylic acid tert-butylamide], the IC50 came to 14.3 nM.

In the case of `Cn1nc(-c2cnc3[nH]cc(C(=O)NC(C)(C)C)c3n2)c2cc(C3CC3)ccc21` [Example I-197, 2-(5-Cyclopropyl-1-methyl-1H-indazol-3-yl)-5H-pyrrolo[2,3-b]pyrazine-7-carboxylic acid tert-butylamide], the IC50 was determined as 4.79 nM.

Consider `Cn1nc(-c2cnc3[nH]cc(C(=O)N[C@@H]4CCC[C@H](N)C4)c3n2)c2ccc(Cl)cc21` (relative stereo) [Example I-277, 2-(6-Chloro-1-methyl-1H-indazol-3-yl)-5H-pyrrolo[2,3-b]pyrazine-7-carboxylic acid (cis-3-amino-cyclohexyl)-amide], for which the IC50 amounted to 40 nM.

As to `CC(C)(C)NC(=O)c1c[nH]c2ncc(-c3nn(Cc4cccnc4)c4ccc(OC(F)F)cc34)nc12` [Example I-264, 2-(5-Difluoromethoxy-1-pyridin-3-ylmethyl-1H-indazol-3-yl)-5H-pyrrolo[2,3-b]pyrazine-7-carboxylic acid tert-butylamide], the IC50 worked out at 4.67 nM.

For the compound `CC(=O)N(C)CCCn1nc(-c2cnc3[nH]cc(C(=O)NC(C)(C)C)c3n2)c2cc(OC(F)F)ccc21` [Example I-346, 2-{1-[3-(Acetyl-methyl-amino)-propyl]-5-difluoromethoxy-1H-indazol-3-yl}-5H-pyrrolo[2,3-b]pyrazine-7-carboxylic acid tert-butylamide], the IC50 was 5.55 nM.

For `Cn1nc(-c2cnc3[nH]cc(C(=O)NC(C)(C)CO)c3n2)c2ccc(OC(F)(F)F)cc21` [Example I-371, 2-(1-Methyl-6-trifluoromethoxy-1H-indazol-3-yl)-5H-pyrrolo[2,3-b]pyrazine-7-carboxylic acid (2-hydroxy-1,1-dimethyl-ethyl)-amide], the IC50 amounted to 23.1 nM.

With `NC(=O)c1c[nH]c2ncc(-c3nn(CC(=O)N4CCOCC4)c4cc(F)ccc34)nc12` [Example I-314, 2-[6-Fluoro-1-(2-morpholin-4-yl-2-oxo-ethyl)-1H-indazol-3-yl]-5H-pyrrolo[2,3-b]pyrazine-7-carboxylic acid amide], the IC50 was 155 nM.

For the compound `Cc1ccc2c(-c3cnc4[nH]cc(C(=O)NC(C)(C)C5CC5)c4n3)nn(C)c2c1` [Example I-428, 2-(1,6-Dimethyl-1H-indazol-3-yl)-5H-pyrrolo[2,3-b]pyrazine-7-carboxylic acid (1-cyclopropyl-1-methyl-ethyl)-amide], the IC50 is 11.9 nM.

Consider `Cn1nc(-c2cnc3[nH]cc(C(=O)NC(C)(C)C)c3n2)c2c1CCCC2` [Example I-295, 2-(1-Methyl-4,5,6,7-tetrahydro-1H-indazol-3-yl)-5H-pyrrolo[2,3-b]pyrazine-7-carboxylic acid tert-butylamide], for which the IC50 was determined as 12.6 nM.

Turning to `COc1ccc2c(cnn2-c2cnc3[nH]cc(C(=O)NC(C)(C)C)c3n2)c1` [Example I-323, 2-(5-Methoxy-indazol-1-yl)-5H-pyrrolo[2,3-b]pyrazine-7-carboxylic acid tert-butylamide], the IC50 worked out at 25.6 nM.

`COCC(COC)NC(=O)c1c[nH]c2ncc(-c3nn(C)c4cc(Cl)ccc34)nc12` [Example I-166, 2-(6-Chloro-1-methyl-1H-indazol-3-yl)-5H-pyrrolo[2,3-b]pyrazine-7-carboxylic acid (2-methoxy-1-methoxymethyl-ethyl)-amide]: the IC50 worked out at 106 nM.

Regarding `Cn1nc(-c2cnc3[nH]cc(C(=O)NC4(CN)CC4)c3n2)c2ccc(F)cc21` [Example I-443, 2-(6-Fluoro-1-methyl-1H-indazol-3-yl)-5H-pyrrolo[2,3-b]pyrazine-7-carboxylic acid (1-aminomethyl-cyclopropyl)-amide], the IC50 amounted to 656 nM.

For `Cn1nc(-c2cnc3[nH]cc(C(=O)NC(C)(C)CCO)c3n2)c2ccc(F)cc21` [Example I-400, 2-(6-Fluoro-1-methyl-1H-indazol-3-yl)-5H-pyrrolo[2,3-b]pyrazine-7-carboxylic acid (3-hydroxy-1,1-dimethyl-propyl)-amide], the IC50 is 8.57 nM.

For `Cn1nc(-c2cnc3[nH]cc(C(=O)NC(C)(C)C)c3n2)c2ccccc21` [Example I-410, 2-(1-Methyl-1H-indazol-3-yl)-5H-pyrrolo[2,3-b]pyrazine-7-carboxylic acid tert-butylamide], the IC50 was 4.7 nM.

As for `CC(C)(C)NC(=O)c1c[nH]c2ncc(-c3cccc4cn[nH]c34)nc12` [Example I-421, 2-(1H-Indazol-7-yl)-5H-pyrrolo[2,3-b]pyrazine-7-carboxylic acid tert-butylamide], the IC50 is 163 nM.

In the case of `Cn1nc(-c2cnc3[nH]cc(C(=O)NC(C)(C)C)c3n2)c2cc(C(F)(F)F)ccc21` [Example I-412, 2-(1-Methyl-5-trifluoromethyl-1H-indazol-3-yl)-5H-pyrrolo[2,3-b]pyrazine-7-carboxylic acid tert-butylamide], the IC50 came to 73.6 nM.

For the compound `Cn1nc(-c2cnc3[nH]cc(C(=O)NC(C)(C)C(=O)OC(C)(C)C)c3n2)c2ccc(F)cc21` [Example I-381, 2-{[2-(6-Fluoro-1-methyl-1H-indazol-3-yl)-5H-pyrrolo[2,3-b]pyrazine-7-carbonyl]-amino}-2-methyl-propionic acid tert-butyl ester], the IC50 stood at 716 nM.

Regarding `Cn1nc(-c2cnc3[nH]cc(C(=O)NC(C)(CO)CO)c3n2)c2ccc(F)cc21` [Example I-383, 2-(6-Fluoro-1-methyl-1H-indazol-3-yl)-5H-pyrrolo[2,3-b]pyrazine-7-carboxylic acid (2-hydroxy-1-hydroxymethyl-1-methyl-ethyl)-amide], the IC50 was 8.05 nM.

Regarding `CC(C)(C)NC(=O)c1c[nH]c2ncc(-n3ncc4cc(Cl)ccc43)nc12` [Example I-324, 2-(5-Chloro-indazol-1-yl)-5H-pyrrolo[2,3-b]pyrazine-7-carboxylic acid tert-butylamide], the IC50 is 108 nM.

As for `Cn1nc(-c2cnc3[nH]cc(C(=O)NC4CCCC(N)C4)c3n2)c2ccc(Cl)cc21` (centres unmarked) [Example I-403, 2-(6-Chloro-1-methyl-1H-indazol-3-yl)-5H-pyrrolo[2,3-b]pyrazine-7-carboxylic acid (3-amino-cyclohexyl)-amide], the IC50 was found to be 13.6 nM.

For `Cn1nc(-c2cnc3[nH]cc(C(=O)NC(C)(C)C#N)c3n2)c2ccc(Cl)cc21` [Example I-407, 2-(6-Chloro-1-methyl-1H-indazol-3-yl)-5H-pyrrolo[2,3-b]pyrazine-7-carboxylic acid (cyano-dimethyl-methyl)-amide], the IC50 was 5.8 nM.

As for `CC(C)NC(=O)c1c[nH]c2ncc(-c3n[nH]c4cc(Cl)ccc34)nc12` [Example I-306, 2-(6-Chloro-1H-indazol-3-yl)-5H-pyrrolo[2,3-b]pyrazine-7-carboxylic acid isopropylamide], the IC50 turned out to be 7.25 nM.

Regarding `Cc1ccc2c(-c3cnc4[nH]cc(C(=O)NC5(C)CCNC5)c4n3)n[nH]c2c1` (centres unmarked) [Example I-431, 2-(6-Methyl-1H-indazol-3-yl)-5H-pyrrolo[2,3-b]pyrazine-7-carboxylic acid (3-methyl-pyrrolidin-3-yl)-amide], the IC50 amounted to 20.7 nM.

Consider `CC(C)(C)NC(=O)c1c[nH]c2ncc(-c3nn(CCCO)c4ccc(OC(F)F)cc34)nc12` [Example I-298, 2-[5-Difluoromethoxy-1-(3-hydroxy-propyl)-1H-indazol-3-yl]-5H-pyrrolo[2,3-b]pyrazine-7-carboxylic acid tert-butylamide], for which the IC50 came out at 3.78 nM.

In the case of `CC(C)(C)NC(=O)c1c[nH]c2ncc(-n3ncc4cc(OC(F)F)ccc43)nc12` [Example I-325, 2-(5-Difluoromethoxy-indazol-1-yl)-5H-pyrrolo[2,3-b]pyrazine-7-carboxylic acid tert-butylamide], the IC50 is 37.6 nM.

Take `Cc1ccc2c(-c3cnc4[nH]cc(C(=O)NC(C)(C)C5CC5)c4n3)n[nH]c2c1` [Example I-433, 2-(6-Methyl-1H-indazol-3-yl)-5H-pyrrolo[2,3-b]pyrazine-7-carboxylic acid (1-cyclopropyl-1-methyl-ethyl)-amide]: the IC50 is 8.55 nM.

The values above are taken from US8658646B2, “Pyrrolopyrazine kinase inhibitors” (Hoffmann-LaRoche Inc., priority 2011, dated 2014).
